As usually defined, the IC50 is the concentration at which inhibition is half-maximal.

Experimental findings from patent US10035790B2, “RORγ modulators” (BRISTOL-MYERS SQUIBB COMPANY, priority 2012, dated 2018) are described below.

This assay has as its target T1, ligand binding domain of human RORγ (A262-S507) (Homo sapiens, UniProt P51449).
T1 construct: made in house; host or cells: E. coli
T1 sequence (P51449 262-507): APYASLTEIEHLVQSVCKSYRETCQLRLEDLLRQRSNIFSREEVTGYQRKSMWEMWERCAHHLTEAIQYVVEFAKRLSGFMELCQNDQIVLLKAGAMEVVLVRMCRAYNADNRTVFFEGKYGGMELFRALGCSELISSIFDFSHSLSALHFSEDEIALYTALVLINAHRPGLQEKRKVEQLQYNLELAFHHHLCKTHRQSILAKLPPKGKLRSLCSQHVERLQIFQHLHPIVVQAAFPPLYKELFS
The assay is described as follows: General RORγ SPA binding assay (competition with [3H]25-hydroxycholesterol). The note with it: RORγ SPA binding assay, inhibition of [3H]25-hydroxycholesterol binding; read-out: IC50. In outline: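 Scintillation counts from copper His-tag SPA beads (4 mg/mL, 30 min) gave percent inhibition of radioligand binding, from which IC50 values are derived. The E. coli-expressed His-tagged domain (50 nM) is first exposed to compound for 15 min at room temperature in PBS containing 0.5% fatty acid free BSA.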
As for `Cc1ncc(C(=O)NNc2cccc(Cl)c2)c(C2CCN(C(=O)Cc3c(F)cccc3F)CC2)n1` [Compound G1, N-(3-Chlorophenyl)-4-(1-(2-(2,6-difluorophenyl)acetyl)piperidin-4-yl)-2-methylpyrimidine-5-carbohydrazide], the IC50 came out at 0.0096 µM.
With `Cc1ncc(/C(CO)=N/Oc2ccnc(C(F)(F)F)c2)c(C2CCN(C(=O)Cc3c(F)cccc3F)CC2)n1` [Compound B23, (1Z)-1-(4-{1-[(2,6-Difluorophenyl)acetyl]piperidin-4-yl}-2-methylpyrimidin-5-yl)-2-hydroxyethanone O-[2-(trifluoromethyl)pyridin-4-yl]oxime] the figure was 0.0084 µM; with `Cc1cc(C)nc(NCC(C)(O)c2cnc(C)nc2C2CCN(C(=O)Cc3c(F)cccc3F)CC2)c1` (centres unmarked) [Compound D6, 2-(2,6-difluorophenyl)-1-(4-(5-(1-((4,6-dimethylpyridin-2-yl)amino)-2-hydroxypropan-2-yl)-2-methylpyrimidin-4-yl)piperidin-1-yl)ethanone], 0.0233 µM.
With `Cc1cc(C)cc(CC=Cc2cnc(C)nc2C2CCN(C(=O)Cc3c(F)cccc3F)CC2)c1` (mixture of isomers) [Compound J1, (E)-2-(2,6-Difluorophenyl)-1-(4-(5-(3-(3,5-dimethylphenyl)prop-1-enyl)-2-methylpyrimidin-4-yl)piperidin-1-yl)ethanone], the concentration for half-maximal inhibition (IC50) stood at 0.046 µM.
Then `CSc1nc(C)c(-c2nnc(-c3cccc(C(F)(F)F)n3)o2)c(C2CCN(C(=O)Nc3c(F)cccc3F)CC2)n1` [Compound C58, N-(2,6-Difluorophenyl)-4-[6-methyl-2-(methylthio)-5-{5-[6-(trifluoromethyl)pyridin-2-yl]-1,3,4-oxadiazol-2-yl}pyrimidin-4-yl]piperidine-1-carboxamide], with 0.0141 µM.
Take `Cc1cc(C)cc(CNC(=O)c2cnc(C)nc2C2CCN(C(=O)Cc3ccc(F)cc3)CC2)c1` [Compound A29, N-(3,5-dimethylbenzyl)-4-(1-(2-(4-fluorophenyl)acetyl)piperidin-4-yl)-2-methylpyrimidine-5-carboxamide]: the half-inhibitory concentration (IC50) amounted to 1.09 µM.
Then `Cc1ncc(/C(CO)=N/Oc2ccnc(C(F)(F)F)n2)c(C2CCN(C(=O)Cc3c(F)cccc3F)CC2)n1` [Compound B25, (Z)-2-(2,6-difluorophenyl)-1-(4-(5-(2-hydroxy-1-(((2-(trifluoromethyl)pyrimidin-4-yl)oxy)imino)ethyl)-2-methylpyrimidin-4-yl)piperidin-1-yl)ethanone], with 0.0112 µM; and `Cc1ncc(C(=O)NCc2ccc(Cl)c(Cl)c2)c(C2CCN(C(=O)Cc3c(F)ccc(F)c3F)CC2)n1` [Compound A13, N-(3,4-dichlorobenzyl)-2-methyl-4-(1-(2-(2,3,6-trifluorophenyl)acetyl)piperidin-4-yl)pyrimidine-5-carboxamide], with 0.052 µM; and `Cc1cc(C)cc(CNC(=O)c2cnc(C)nc2C2CCN(C(=O)Cc3ccccc3Cl)CC2)c1` [Compound A7, 4-(1-(2-(2-chlorophenyl)acetyl)piperidin-4-yl)-N-(3,5-dimethylbenzyl)-2-methylpyrimidine-5-carboxamide], with 0.0281 µM.
As for `Cc1ncc(/C=N/Oc2cccc(C(F)(F)F)c2)c(C2CCN(C(=O)Cc3c(F)cccc3F)CC2(F)F)n1` (centres unmarked) [Compound B33, (E)-4-(1-(2-(2,6-Difluorophenyl)acetyl)-3,3-difluoropiperidin-4-yl)-2-methylpyrimidine-5-carbaldehyde O-3-(trifluoromethyl)phenyl oxime], the 50% inhibitory concentration (IC50) came out at 0.0367 µM.
On to `Cc1cc(C(F)(F)F)nc(CNC(=O)c2cnc(C)nc2C2CCN(C(=O)Cc3c(F)cccc3F)CC2)n1` [Compound A67, 4-(1-(2-(2,6-difluorophenyl)acetyl)piperidin-4-yl)-2-methyl-N-((4-methyl-6-(trifluoromethyl)pyrimidin-2-yl)methyl)pyrimidine-5-carboxamide], for which the IC50 was determined as 0.085 µM.
